Laboratory results: US20210009541A1, “FUNGICIDAL OXADIAZOLES” (Bayer Aktiengesellschaft, priority 2018, published 2021)
Marks after values point to notes of the source that are not given here.

Legend:
[1] = LogP by HPLC on reversed phase columns (EEC directive 79/831 Annex V.A8); assay type: physicochemical; conditions: for chromatographic logP: reversed phase HPLC column, method [a]: LC-UV, acidic range, 0.1% formic acid in water and acetonitrile as eluent
Method: [table] If more than one Log P value is available within the same method, all the values are given and separated by “+”. […] Lambda-max-values were determined using UV-spectra from 200 nm to 400 nm and the peak values of the chromatographic signals.

[2] = system: Colletotrichum lindemuthianum; assay: Example E: Colletotrichum lindemuthianum in vitro cell test; assay type: cell-based; conditions: 144 h, 20 ppm of active ingredient, liquid culture, 6 days incubation, read-out: efficacy (inhibition of fungal growth)
Method: Example E: Colletotrichum lindemuthianum In Vitro Cell Test
• Solvent: DMSO Culture medium: 14.6 g anhydrous D-glucose (VWR), 7.1 g Mycological Peptone (Oxoid), 1.4 g granulated Yeast Extract (Merck), QSP 1 liter • Inoculum: spores suspension
Active ingredients were solubilized in DMSO and the solution used to prepare the required range of concentrations. The final concentration of DMSO used in the assay was 1%.
A spore suspension of C. lindemuthianum was prepared and diluted to the desired spore density.
The active ingredients were evaluated for their ability to inhibit spores germination and mycelium growth in liquid culture assay. The compounds were added in the desired concentration to the culture medium with spores. After 6 days incubation, fungi-toxicity of compounds was determined by spectrometric measurement of mycelium growth. Inhibition of fungal growth was determined by comparing the absorbance values in wells containing the active ingredient with the absorbance in control wells without active ingredient.

[3] = system: Phakosporra pachirrhizi; assay: Example D: fungicidal activity against Phakosporra pachirrhizi (spore germination, 96-well imaging); assay type: cell-based; conditions: 30 ppm of active ingredient; wild-type spores, 4 hours at 21° C.; read-out: efficacy (inhibition of the fungal germination)
Method: Example D: Fungicidal Activity Against Phakosporra pachirrhizi
Cryo-conserved wild-type spores of the biotroph Phakosporra pachirrhizi are humidified in dedicated chamber overnight at 18° C. in the dark. The next day, a solution of spores at 7×10^3 sp/ml is prepared in a water based growth medium (DH2O+0.2 mM MOPS at pH 7+0.01% Tween 20) and spores are distributed in a 96-MTPS (final volume of 200 μL per well) thanks to a dispenser robot. Each molecule is tested at 10 doses (from 30 to 0.002 ppm final concentration) and accordingly 1.2 μL of each dilution is transferred in dedicated well to end-up with a final concentration of 0.6% DMSO. Wild-type spores and molecules are incubated for 4 hours at 21° C., and 6 images par well are then acquired with Transmitted Light images (Image Xpress Micro microscope, Molecular Devices, Objective 10λ, 6 images per well). Detection and quantification of the number of germinated spores per image is performed with a dedicated in-house developed algorithm (MetaXpress software, Molecular Devices).

Row | Structure (SMILES) | chromatographic logP [1] | LogP [1] | inhibition at 20 ppm [2] | inhibition at 30 ppm [3]
1 | FC(F)(F)c1nc(-c2ccc3[nH]ncc3c2)no1 [Compound I-005, 5-[5-(Trifluoromethyl)-1,2,4-oxadiazol-3-yl]-1H-indazole] | 2.68 | – | 90 to 100% | 90 to 100%
2 | COCCn1ncc2cc(-c3noc(C(F)(F)F)n3)ccc21 [Compound I-013, 1-(2-Methoxyethyl)-5-[5-(trifluoromethyl)-1,2,4-oxadiazol-3-yl]-1H-indazole] | 3.31 | – | 80 to 89% | 80 to 89%
3 | FC(F)(F)c1nc(-c2ccc3c(cnn3Cc3ccccc3)c2)no1 [Compound I-009] | – | 4.39^[a] | – | –

The next lines start with results.

Row | chromatographic logP [1] | LogP [1] | Structure (SMILES) | inhibition at 20 ppm [2] | inhibition at 30 ppm [3]
4 | 3.79 | – | CON(C(C)=O)C1CCCc2cc(-c3noc(C(F)(F)F)n3)ccc21 (centres unmarked) [Compound I-020, N-Methoxy-N-{6-[5-(trifluoromethyl)-1,2,4-oxadiazol-3-yl]-1,2,3,4-tetrahydronaphthalen-1-yl}acetamide] | 90 to 100% | 70 to 79%
5 | 2.96 | – | COCCn1cc2cc(-c3noc(C(F)(F)F)n3)ccc2n1 [Compound I-014, 2-(2-Methoxyethyl)-5-[5-(trifluoromethyl)-1,2,4-oxadiazol-3-yl]-2H-indazole] | 80 to 89% | 70 to 79%
6 | – | 3.28^[a] | CC(=O)Nc1ccc(-c2noc(C(F)(F)F)n2)c2c1CCC2 [Compound I-056] | – | –
